The text below walks through data of PMC9107766, “Inhibitory effect of lignin on the hydrolysis of xylan by thermophilic and thermolabile GH11 xylanases” (Biotechnology for Biofuels and Bioproducts, 2022).

Test [1] has as its target T1, TrXyn2 (Trichoderma reesei, UniProt P36217).
T1 construct: gene xyn2; natural single-domain GH11 enzyme, homologously produced and purified from T. reesei culture supernatant
Put plainly: birch wood xylan hydrolysis yield, reducing sugars by PAHBAH. To be noted: tested at 10, 100 and 1000 µg/ml; 1% xylan, 50 mM Na-citrate pH 5, 40 or 50 °C. Type of test: biochemical.

In test [2] the target is T2, TrXyn1 (Trichoderma reesei, UniProt P36218).
T2 construct: gene xyn1; natural single-domain GH11 enzyme, homologously produced and purified from T. reesei culture supernatant
T2 sequence (P36218 52-229): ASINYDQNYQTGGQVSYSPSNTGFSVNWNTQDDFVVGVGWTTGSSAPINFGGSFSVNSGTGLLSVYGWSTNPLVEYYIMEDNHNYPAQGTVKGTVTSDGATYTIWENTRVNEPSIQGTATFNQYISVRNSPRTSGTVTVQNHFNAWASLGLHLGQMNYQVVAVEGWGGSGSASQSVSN
The test is described as above. To be noted: tested at 10, 100 and 1000 µg/ml; 1% xylan, 50 mM Na-citrate pH 5, 40 or 50 °C; concentration of the printed value not given. Type of test: biochemical.

T1 sequence (P36217 34-223): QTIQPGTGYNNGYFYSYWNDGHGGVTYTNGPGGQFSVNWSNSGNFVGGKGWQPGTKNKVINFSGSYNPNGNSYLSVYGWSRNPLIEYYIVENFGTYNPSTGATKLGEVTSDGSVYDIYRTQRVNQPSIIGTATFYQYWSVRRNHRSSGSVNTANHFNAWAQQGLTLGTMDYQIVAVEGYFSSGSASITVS

With `COc1cc(C=O)cc(OC)c1O` [syringaldehyde], the “reduction in hydrolysis yield” value in test [1] was “only syringaldehyde showed a clear inhibitory effect on the hydrolysis for all the tested xylanases”. For the same compound, the “% reduction in the hydrolysis yield” value in test [2] was 50%.
